Test results taken from patent publication US12295949B2, “Treatment of the gastrointestinal tract with dimeric naphthalimide compounds” (Alumend, LLC, priority 2022, dated 2025).
Several values for one entry are separate records, joined by “and”; a condition that tells them apart may be missing. Equal values may be shown once. Entries after “also recorded” stand apart in the source; their conditions may differ.

Columns and labels:
[1] = system: esophageal tissue in a healthy swine in vivo esophagus; test: Crosslink healthy in vivo esophagus at two power levels (delivery, soak, balloon dilatation, light activation); set-up: species or system Yorkshire Cross swine
Source text: More specifically, this study evaluated the logistics for esophageal placement of compound I(a) with the use of contrast media, the crosslinking effects of compound I(a), and acute retention of dilation in an in vivo swine model.
An Olympus GIF-140 Endoscope was used in this study. Fluoroscopy was utilized throughout the procedures for confirmation of equipment placement, sample delivery, and removal.
A 60-65 kg Yorkshire Cross (18P118) was used to establish the logistical techniques of the procedure. The animal was fasted for 24 hours prior to the procedure commencing. Post anesthesia swine 18P118 was positioned supinely (on its back) with the surgical table flat. A lavage was performed to flush any remaining contents from the esophagus and stomach. The endoscope was lubricated with a dime size amount of water based Astroglide and inserted into the mouth, passed by the epiglottis, around the pharyngeal diverticulum, through the esophagus and into the stomach. At insertion, the esophagus was partially open, (<5 mm diameter) circular and smooth. The esophagus formed around the catheter and the endoscope inserted instruments, ranging from 4 mm to 12.74 mm in diameter. The endoscope incremental measurements were used to determine the endoscope placement from the front incisor (zero reference point) to the lower esophageal sphincter (71 cm) with the designated working area being between 30 and 60 cm. The endoscope was maintained in the esophagus for the entire procedure.
Using the endoscope, the Edwards Fogarty occlusion catheter and the Vista Brite tip guide catheter were guided down the esophagus and positioned at the 45 cm mark. Positioning them simultaneously, then holding during inflation prevented slippage of the catheters during balloon inflation. The mucosa is loosely attached to the muscularis; the movement of any device in contact with the mucosa influenced the positioning of all inserted devices. […]
Once the volume required to fill the treatment zone was determined the contrast medium was removed. […]

[2] = system: ex-vivo healthy swine arterial tissue; test: Fluorescence microscopy of ex-vivo arterial tissue cross-sections after delivery of 10-8-10 Dimer; type: in vitro ADME; settings: 2 mg/mL for five minutes, 60x fluorescence microscopy
Method: FIGS. 32A and B are fluorescence microscopy images of ex-vivo healthy swine arterial tissue cross-section delivered with 2 mg/mL 10-8-10 Dimer for five minutes; wherein (A) is a fluorescence image at 60× magnification and (B) is at 60× magnification with fluorescence and greyscale overlay. FIGS. 32A and B are 60× fluorescence microscopy images of ex-vivo healthy swine arterial tissue cross-sections treated with 2 mg/mL 10-8-10 Dimer for five minutes; wherein (A) is a fluorescence image and (B) is a fluorescence and greyscale overlay.

[3] = system: ex-vivo healthy swine esophageal tissue; test: Fluorescence microscopy of ex-vivo esophageal tissue cross-section after delivery of 10-8-10 Dimer; type: in vitro ADME
Method: FIGS. 34A and B are fluorescence microscopy images of ex-vivo healthy swine esophageal tissue cross-section delivered with 4 mg/mL 10-8-10 Dimer for five minutes; wherein (A) is a fluorescence image at 4× magnification, and (B) is at 4× magnification with the fluorescence and greyscale overlay). FIGS. 34A and B are 4× fluorescence microscopy images of ex-vivo healthy swine esophageal tissue cross-section treated with 4 mg/mL 10-8-10 Dimer for five minutes; wherein (A) is a fluorescence image, and (B) is the fluorescence and greyscale overlay. As shown therein, The penetration of 10-8-10 Dimer into ex-vivo esophageal tissue is also vastly different from arterial tissue penetration. […] Treatment with 2 mg/ml of 10-8-10 Dimer was ineffective. In contrast to the treatment of arterial tissue, the 10-8-10 Dimer was efficacious at a concentration 100% greater.

[4] = system: esophageal strictures generated by endoscopic mucosal resection (EMR); test: Esophageal stricture (endoscopic mucosal resection) formation and treatment with compound I(a) plus PTA with light in minipigs; type: in vivo, Yucatan minipigs
Source text: Five healthy Yucatan minipigs (20-28 kg) were enrolled in the study. For the EMR procedure, each animal was monitored and maintained under anesthesia throughout the duration of the procedure. Each animal was placed in a supine position and elevated to a 5-12 degrees reverse Trendelenburg position, to aid in keeping gastric fluids from coming into the EMR procedural area. A water base lubricant (Astroglide) was used to aid at every insertion of the endoscope.
The upper GI was intubated and surveyed for abnormalities and gastric fluid content via a GIF-XQ140 endoscope. Of the five animals, three animals underwent lavage to remove excess fluid and debris from the esophagus and gastric lumen by washing with saline and suctioning out fluid/debris. A fluoroscopic esophagogram was taken of the target area with the endoscope in place (FIG. 1). The distal tip was measured with a calibrated digital caliper and the measurement was used to calibrate the fluoroscopic measurement tool. […] All representative fluoroscopic and endoscopic imagery are from animal 19P39 unless otherwise stated.
The scope tip was positioned within ±3 cm of the target site. Suction was applied through the gastroscope to visualize the esophageal mucosa at the distal attachment (DA) and to visualize the injection range to capture approximately three-fourths of the esophageal lumen at the target site. The needle from the disposable EMR kit was inserted through the endoscope biopsy channel and into the endoscope field of view (FIG. 2A). The injector slider was pushed until it clicked into position to extend the needle from the sheath. A 10 mL syringe with saline was connected to the injector port. Suction was applied and the injector needle advanced to pierce the target mucosa and to inject a bolus of saline (FIG. 2B). The target area was injected with 0.5 mL to 2.0 mL of saline multiple times to reach a coverage of approximately three-fourths circumference of the target area. Following injections suction was released, and the needle withdrawn from the biopsy channel for insertion of the snare.
The snare was used to remove the blistered mucosal tissue from the treated area. The snare was retracted and inserted into the biopsy channel and advanced into the field of view with the distal sheath. The snare was connected to the electrosurgical unit (Olympus PSD-20). The electrosurgical unit has two settings, one setting is CUT, which is used to cut the tissue and the other setting is COAG, which is used to cauterize the tissue. The snare loop tip was slowly extended approximately 5-10 mm beyond the DA, and CUT was activated marking the base of the tissue bolus by cauterizing the mucosa (FIG. 3A). Suction was used to draw the tissue bolus partially into the DA, and CUT was activated to separate the target mucosa from the submucosa/muscularis. The snare loop was also used as a lasso to remove the partially resected mucosa by cinching the snare closed around the resection (FIG. 3B) and activating the CUT pedal and COAG pedal as needed. The tissue that was not easily removed with the snare was removed with a coagrasper (FIG. 3C). The natural contraction movements of the esophagus posed some difficulty with maintaining a perfect depth to only exposing the submucosal tissue and to maintaining a consistent resection length throughout the resected area. For some animals there were portions of muscularis tissue exposed and some spiraling to the resected area due to the esophageal contractions (FIG. 4). Following the EMR a post procedural fluoroscopic esophagogram (FIG. 5) was taken and the animal recovered from anesthesia.
The EMR in the target area span approximately 270 degrees circumference and less than 2 cm wide.
On Day 21, post stricture induction, animals underwent anesthesia for evaluation of stricture formation and for stricture treatment. No lavage was needed to the esophagus or gastric lumen to complete the treatment on any of the animals. […]

[5] = 4 mg/mL for five minutes, 4x fluorescence microscopy
[6] = Study Day 21, fluoroscopic, PTA + compound I(a) w/light, one row per animal
[7] = Study Day 49 necropsy, cross-section of esophagus, compound I(a) + PTA w/ light, one row per animal

NCCOCCOCCNc1ccc2c3c(cccc13)C(=O)N(CCOCCOCCN1C(=O)c3cccc4c(NCCOCCOCCN)ccc(c34)C1=O)C2=O [compound I(a)]
crosslinking of the esophageal tissue (esophagus open at treated sites) ([1]; 10 mg/mL, 10 min soak, balloon dilatation, laser 74 mW/cm2 (site A) or 32 mW/cm2 (sites B, C) for 2 minutes): indications of potential crosslinking were seen at multiple sites; also recorded: opening at sites A, B and C indicate a crosslinking of the esophageal tissue
penetration of esophageal tissue (yellow coloration of the tissue) ([1]; 8 mL of compound I(a) 10 mg/mL in PBS, 10 minutes soak, treatment sites A, B, C, endoscopic observation): penetration was observed; also recorded: yellow coloration of the tissue is indicative of compound I(a) penetration; also recorded: yellow coloration of the esophagus confirmed delivery
irritation of the esophagus on endoscopy or necropsy examination ([1]; post treatment, entire length of the esophagus, slight irritation at site C attributed to TAPAS catheter): No significant irritation
penetration into arterial tissue (fluorescence) [2]: penetrated through the arterial intima and into the media
treatment of esophageal tissue at 2 mg/ml ([3]; 2 mg/ml): ineffective
fluorescence in the submucosa or muscularis [3, 5]: no significant fluorescence
location of 10-8-10 Dimer fluorescence in esophageal tissue [3, 5]: preponderance of 10-8-10 Dimer fluorescence is in the epithelium
treatment of esophageal tissue at higher concentration ([3]; concentration 100% greater than for arterial tissue (4 mg/mL vs 2 mg/mL)): efficacious
penetration at stricture site (yellow coloration of the esophagus) ([4]; 10 mg/ml in PBS, 10 minutes soak, Day 21): Yellow coloration of the esophagus was observed indicating penetration
abnormalities of the entire esophagus via endoscope imaging ([4]; Day 21 post treatment, compound I(a) plus PTA balloon with light animals, other than the stricture area): no abnormalities were seen
re-epithelialization (pathology report) ([4]; Day 49 microscopic evaluation, compound I(a) plus PTA balloon with light): complete
Diameter of Stricture (mm) 0 min. post TX ([4]; Study Day 21, fluoroscopic, PTA + compound I(a) (10 mg/ml in PBS, 10 min soak) w/light 74 mW/cm2, one row per animal): 15.88 mm and 13.0 mm and 12.4 mm
Diameter of Stricture (mm) 30 min. post TX [4, 6]: 17.13 mm and 7.5 mm and 14.8 mm
Diameter of Stricture (mm) 60 min. post TX [4, 6]: 13.8 mm and 8.5 mm and 10.9 mm
Length of Stricture (mm) Endoscopic scan post TX ([4]; Study Day 21, post treatment, PTA + compound I(a) w/light, one row per animal): 30 mm (2×) and 17 mm
Length of Stricture (mm) Fluoroscopic ([4]; Study Day 49 (four weeks post treatment), compound I(a) + PTA w/light, one row per animal): 12.6 mm (2×) and 12.8 mm
Stricture Length [4, 7]: 3-11 millimeters and 5 millimeters and 25 millimeters
Stricture Width [4, 7]: 12 millimeters and 10 millimeters and 7 millimeters
Diameter of Stricture Post TX ([4]; Table 3, Study Day 49 (four weeks post treatment), fluoroscopic, compound I(a) + PTA w/light, one row per animal): 4.9 mm and 6.0 mm and 7.4 mm
Diameter of Stricture Post TX ([4]; Table 10, post treatment, 29 days apart, compound I(a) + PTA w/light, one row per animal, in mm): 6.0 and 7.4 and 4.9
percent gain at the stricture site post-treatment ([4]; all compound I(a) plus PTA balloon with light treated animals, Table 10): increase in percent gain
% Stricture Diameter Change Before and Post Treatment ([4]; before and post treatment 29 days apart, compound I(a) + PTA w/light, one row per animal): 22.4% and 94.7% and 169%
restoring the esophagus to a healthier diameter and movement ([4]; compound I(a) plus PTA balloon with light, in comparison with PTA balloon only treatment (19P38)): better success
retention of dilation ([4]; four weeks after treatment with compound I(a) crosslinking): demonstrated retention of dilation
